These results are taken from US10314841B2, “Substituted pyrazoles as IRAK inhibitors” (Merck Patent GmbH, priority 2014, dated 2019).

Assay [1] addresses T1, IRAK1 (His-TEV-IRAK1 (194-712)) (Homo sapiens, UniProt P51617).
T1 construct: His-TEV-IRAK1 (194-712); His (N); TEV cleavage site (N)
Description: IRAK1 enzymatic assay. Format: biochemical. The note with it: human recombinant His-TEV-IRAK1, ATP 1 μM, 3 hours at 30° C., FlashPlate. How it is done:
IRAK1 Enzymatic Assay IRAK1 is a human purified recombinant enzyme (His-TEV-IRAK1 (194-712)). In this assay, IRAK-1 hydrolyses ATP and autophosphorylates. Measurement of IRAK-1 inhibition was performed in streptavidin coated 384 well FlashPlate (PerkinElmer #SM[…]). His-TEV-IRAK-1 (15 ng/well), ATP (1 μ[…]]ATP 0.25 μCi/well) and compounds in DMSO (range of concentrations from 20 μM to 1 nM) or controls (2% DMSO) were incubated for 3 hours at 30° C. in assay buffer: Hepes pH7.0 50 mM, Fatty acid-free BSA 0.1%, Dithiothreitol DTT 2 mM, MgCl2 10 mM, EGTA 0.5 mM, Triton-X-100 0.01%. Kinase reaction was stopped by addition of EDTA. Supernatant was discarded, plates were washed three times with 150 mM NaCl and radioactivity was then measured in a Microbeta Trilux reader.

In a further assay the target is T2, IRAK4 (His-TEV-IRAK4) (Homo sapiens, UniProt Q9NWZ3).
T2 construct: His (N); TEV cleavage site (N)
T2 sequence (Q9NWZ3 1-460): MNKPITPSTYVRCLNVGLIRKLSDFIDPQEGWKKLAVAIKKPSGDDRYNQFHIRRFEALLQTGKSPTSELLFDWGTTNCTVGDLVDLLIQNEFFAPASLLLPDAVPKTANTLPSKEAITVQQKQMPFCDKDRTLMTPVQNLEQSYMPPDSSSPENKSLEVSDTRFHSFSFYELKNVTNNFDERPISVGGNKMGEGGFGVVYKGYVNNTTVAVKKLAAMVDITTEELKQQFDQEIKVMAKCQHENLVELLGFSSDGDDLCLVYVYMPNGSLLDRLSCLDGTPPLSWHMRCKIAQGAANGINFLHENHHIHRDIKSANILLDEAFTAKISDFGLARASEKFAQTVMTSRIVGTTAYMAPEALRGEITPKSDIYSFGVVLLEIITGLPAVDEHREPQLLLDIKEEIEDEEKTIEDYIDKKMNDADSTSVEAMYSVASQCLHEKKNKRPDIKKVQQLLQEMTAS
Description: IRAK4 enzymatic assay. The note with it: human recombinant His-TEV-IRAK4, ATP 2 μM, STK1-biotin peptide 300 nM, 3 hours at 30° C., FlashPlate. It is filed as biochemical. How it is done: IRAK4 Enzymatic Assay IRAK4 is a human purified recombinant enzyme (His-TEV-[…] (194-712). IRAK4 hydrolyses ATP, autophosphorylates and phosphorylates a Serine/Threonine generic peptidic substrate (STK: 61 ST1BLC from CisBio International based in Bagnols/Cèze FR). Measurement of IRAK-4 inhibition was performed in streptavidin coated 384 well FlashPlate (PerkinElmer #SM[…]). His-TEV-IRAK4 (20 ng/well), ATP (2 μM, [^33P]ATP 0.25 μCi/well), STK1-biotin peptide (300 nM) and compounds in DMSO (range of concentrations from 20 μM to 1 nM) or controls (2% DMSO) were incubated for 3 hours at 30° C. in assay buffer: Hepes pH7.0 50 mM, Fatty acid-free BSA 0.1%, Dithiothreitol DTT 2 mM, MgCl2 10 mM, EGTA 0.5 mM, Tween-20 0.01%, MnCl2 5 mM. Kinase reaction was stopped by addition of EDTA. Supernatant was discarded, plates were washed three times with 150 mM NaCl and radioactivity was then measured in a Microbeta Trilux reader.

The test system of assay [2] is TLR7 induced IL-6 secretion in human PBMC's. Description: TLR7 induced IL-6 in human PBMC's. The note with it: human PBMC, TLR7 specific ligand 2 uM overnight, IL-6 Alpha LISA; read-out: TLR7 induced IL-6 secretion in hPBMC's (IC50). It is filed as cell-based. As for the experimental part:
TLR7 Induced IL-6 in Human PBMC's Human PBMC assay was used as one of the functional assays to monitor the activity of IRAK1 and IRAK4 small molecule inhibitors on TLR7 induced IL-6 secretion in human mononuclear cells (PBMC's). Human PBMCs were prepared from buffy coats (whole blood enriched with leukocytes and platelets) obtained from healthy volunteers used either fresh or frozen are plated in assay media (RPMI+2% P/S/L-glu+10% HI-FBS) and pre-treated with compounds in DMSO/media (range of concentrations from 25 uM to 0.4 nM) or controls (0.25% DMSO) for 30 minutes at 37° C. in assay media. Following pre-treatment with IRAK1 and IRAK4 inhibitors, PBMC's were stimulated with TLR7 specific ligand (2 uM) overnight (16-18 hrs) at 37° C. After incubation supernatant was transferred to 384 well PE AlphaPlate-384 (6005350) and IL-6 is quantified using Perkin Elmer IL-6 Alpha LISA kit (A[…]). Plates were read on an Envision® plate reader with Alpha Technology®.

pIC50: −log10 of the molar value.

T1 sequence (P51617 194-712): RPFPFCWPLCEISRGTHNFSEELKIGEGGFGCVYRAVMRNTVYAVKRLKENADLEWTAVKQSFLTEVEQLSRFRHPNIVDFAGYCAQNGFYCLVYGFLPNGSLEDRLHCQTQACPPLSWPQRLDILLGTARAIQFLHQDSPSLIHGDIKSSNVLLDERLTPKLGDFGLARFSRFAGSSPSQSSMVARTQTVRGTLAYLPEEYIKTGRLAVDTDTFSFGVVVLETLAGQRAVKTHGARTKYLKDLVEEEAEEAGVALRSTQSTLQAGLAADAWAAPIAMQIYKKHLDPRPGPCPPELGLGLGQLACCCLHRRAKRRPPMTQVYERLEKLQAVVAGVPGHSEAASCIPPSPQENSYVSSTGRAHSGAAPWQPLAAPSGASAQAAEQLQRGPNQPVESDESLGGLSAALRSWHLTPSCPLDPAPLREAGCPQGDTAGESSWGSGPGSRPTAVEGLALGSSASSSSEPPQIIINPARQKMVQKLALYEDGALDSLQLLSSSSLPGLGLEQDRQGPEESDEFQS

With `C=CS(=O)(=O)N1CCCC(n2cc(-c3cnc(-c4cccc(-c5cnn(C)c5)c4)nc3)cn2)C1` (stereo not drawn) [Compound 17, 5-[1-(1-Ethenesulfonyl-piperidin-3-yl)-1H-pyrazol-4-yl]-2-[3-(1-methyl-1H-pyrazol-4-yl)-phenyl]-pyrimidine], the pIC50 (in assay [1]; at IRAK4 (His-TEV-IRAK4); in assay [2]) was over 7.00 in each case.
Take `C=CS(=O)(=O)N1CCC(n2cc(-c3cnc(-c4cccc(-c5cnn(C)c5)c4)nc3)cn2)CC1` [Compound 18, 5-[1-(1-Ethenesulfonyl-piperidin-4-yl)-1H-pyrazol-4-yl]-2-[3-(1-methyl-1H-pyrazol-4-yl)-phenyl]-pyrimidine]: the pIC50 (in assay [1]; on IRAK4 (His-TEV-IRAK4); in assay [2]) was over 7.00 throughout.
On to `Cn1cc(-c2cccc(-c3ncc(-c4cnn(C5CCC[C@@H](S(C)(=N)=O)C5)c4)cn3)c2)cn1` (stereo partly drawn) [Compound 34, imino(methyl)(Cis-3-(4-(2-(3-(1-methyl-1H-pyrazol-4-yl)phenyl)pyrimidin-5-yl)-1H-pyrazol-1-yl)cyclohexyl)-I6-sulfanone], for which the pIC50 is 6.00 to 7.00 in assay [1], over 7.00 on IRAK4 (His-TEV-IRAK4) and 4.70 to 6.00 in assay [2].
For `C=CC(=O)N[C@H]1CCC[C@H](n2cc(-c3cnc(-c4cccc(-c5cnn(C)c5)c4)nc3)cn2)C1` [Compound 38, N-[(1S,3S)-3-(4-{2-[3-(1-Methyl-1H-pyrazol-4-yl)-phenyl]-pyrimidin-5-yl}-pyrazol-1-yl)-cyclohexyl]-acrylamide], in that order: 6.00 to 7.00, over 7.00 and 6.00 to 7.00.
On to `Cn1nccc1-c1cccc(-c2ncc(-c3cnn([C@H]4CC[C@]5(CCC(=O)N5C)CC4)c3)cn2)c1` [Compound 43, 1-Methyl-8-((S)-4-{2-[3-(2-methyl-2H-pyrazol-3-yl)-phenyl]-pyrimidin-5-yl}-pyrazol-1-yl)-1-aza-spiro[4.5]decan-2-one], for which the values for the pIC50 (in assay [1]; on IRAK4 (His-TEV-IRAK4); in assay [2]) were 4.70 to 6.00, over 7.00 and 4.70 to 6.00, respectively.
In the case of `Cn1cc(-c2cccc(-c3ncc(-c4cnn(C5CCN(C#N)CC5)c4)cn3)c2)cn1` [Compound 45, 4-(4-{2-[3-(1-Methyl-1H-pyrazol-4-yl)-phenyl]-pyrimidin-5-yl}-pyrazol-1-yl)-piperidine-1-carbonitrile], the pIC50 in assay [1] is 6.00 to 7.00; on IRAK4 (His-TEV-IRAK4) it was over 7.00; in assay [2] it was 6.00 to 7.00.
As to `Cn1cc(-c2cccc(-c3ncc(-c4cnn(C5CCN(C(=O)/C(C#N)=C\C6CC6)CC5)c4)cn3)c2)cn1` [Compound 46, (Z)-3-Cyclopropyl-2-[4-(4-{2-[3-(1-methyl-1H-pyrazol-4-yl)-phenyl]-pyrimidin-5-yl}-pyrazol-1-yl)-piperidine-1-carbonyl]-acrylonitrile], the values for the pIC50 (in assay [1]; at IRAK4 (His-TEV-IRAK4); in assay [2]) were over 7.00, over 7.00 and 6.00 to 7.00, respectively.
For the compound `CC#CC(=O)N1CCC(n2cc(-c3cnc(-c4cccc(-c5cnn(C)c5)c4)nc3)cn2)CC1` [Compound 48, 1-[4-(4-{2-[3-(1-Methyl-1H-pyrazol-4-yl)-phenyl]-pyrimidin-5-yl}-pyrazol-1-yl)-piperidin-1-yl]-but-2-yn-1-one], the figures for the pIC50 (in assay [1]; at IRAK4 (His-TEV-IRAK4); in assay [2]) were over 7.00, over 7.00 and 4.70 to 6.00, respectively.
